tested on: Meloidogyne incognita; assay: not given; type: in vivo; conditions: 336 h, 20 ppm
Description: Meloidogyne incognita - test
To produce a suitable preparation of active compound, 1 part by weight of active compound is mixed with the stated amount of solvent, and the concentrate is diluted with emulsifier-containing water to the desired concentration.
Vessels are filled with sand, a solution of the active ingredient, a suspension containing eggs and larvae of Meloidogyne incognita and salad seeds. The salad seeds germinate and the seedlings grow. Galls develop in the roots.
After 14 days the nematicidal activity is determined on the basis of the percentage of gall formation. 100% means that no galls were found; 0% means that the number of galls found on the roots of the treated plants was equal to that in untreated control plants.

SMILES | nematicidal activity determined on the basis of the percentage of gall formation [%]
Cc1nc(C(=O)N(C2CC2)S(=O)(=O)c2ccc(Cl)c(C(F)(F)F)c2)cs1 [compound 69] | 80
O=C(c1cccnc1)N(C1CC1)S(=O)(=O)c1ccc(Cl)c(C(F)(F)F)c1 [compound 638] | 100

tested on: not listed separately; assay: logP by HPLC on reversed-phase column (C 18), EEC Directive 79/831 Annex V.A8, Method A (0.1% aqueous phosphoric acid / acetonitrile, 43°C); type: physicochemical; conditions: c18 reversed-phase hplc; LogP method A: HPLC reversed-phase C 18, 43°C, 0.1% aqueous phosphoric acid / acetonitrile
Description: Calibration was carried out using unbranched alkan-2-ones (having 3 to 16 carbon atoms) with known logP values (determination of the logP values by the retention times using linear interpolation between two successive alkanones).

SMILES | chromatographic logP
Cc1nc(C(=O)N(C2CC2)S(=O)(=O)c2ccc(Cl)c(C(F)(F)F)c2)cs1 [compound 69] | 3.63
Cc1nn(C)c(Cl)c1C(=O)N(C1CC1)S(=O)(=O)c1ccc(Cl)c(C(F)(F)F)c1 [compound 406] | 3.76
Cc1nn(C)c(Cl)c1C(=O)N(C1CC1)S(=O)(=O)c1ccc(Cl)c(Cl)c1 [compound 407] | 3.63
Cc1n[nH]c(C)c1C(=O)N(C1CC1)S(=O)(=O)c1ccc(Cl)c(C(F)(F)F)c1 [compound 408] | 3
Cc1n[nH]c(C)c1C(=O)N(C1CC1)S(=O)(=O)c1ccc(Cl)c(Cl)c1 [compound 409] | 2.74
Cc1nn(C)c(C)c1C(=O)N(C1CC1)S(=O)(=O)c1ccc(Cl)c(C(F)(F)F)c1 [compound 411] | 3.37
Cc1nn(C)c(C)c1C(=O)N(C1CC1)S(=O)(=O)c1ccc(Cl)c(Cl)c1 [compound 412] | 3.21
Cc1nn(C)c(C)c1C(=O)N(C1CC1)S(=O)(=O)c1ccc(Cl)cc1Cl [compound 413] | 2.8
Cc1nn(C)c(F)c1C(=O)N(C1CC1)S(=O)(=O)c1cc(Cl)sc1Cl [compound 435] | 3.16
Cc1nn(C)c(F)c1C(=O)N(C1CC1)S(=O)(=O)c1cccnc1Cl [compound 446] | 1.96
Cc1nn(C)c(F)c1C(=O)N(C1CC1)S(=O)(=O)c1cnc(Cl)c(Br)c1 [compound 447] | 3.08
CCc1onc(C(C)C)c1C(=O)N(C1CC1)S(=O)(=O)c1cccc(Cl)c1 [compound 589] | 4.18
CCc1onc(C(C)C)c1C(=O)N(C1CC1)S(=O)(=O)c1ccc(Cl)c(C(F)(F)F)c1 [compound 594] | 4.82
CCc1onc(C(C)C)c1C(=O)N(C1CC1)S(=O)(=O)c1ccc(Cl)c(Cl)c1 [compound 595] | 4.77
CCc1onc(C(C)C)c1C(=O)N(C1CC1)S(=O)(=O)c1ccc(Cl)cc1Cl [compound 596] | 4.41
Cn1nc(C(=O)N(C2CC2)S(=O)(=O)c2ccccc2Cl)n(C)c1=O [compound 608] | 1.97
COCCn1c(C)c(C(=O)N(C2CC2)S(=O)(=O)c2cccc(Cl)c2)sc1=O [compound 609] | 2.01
Cc1c(C(=O)N(C2CC2)S(=O)(=O)c2cccc(Cl)c2)sc(=O)n1Cc1ccccc1 [compound 613] | 2.01
CCc1c(C(=O)N(C2CC2)S(=O)(=O)c2cccc(Cl)c2)sc(=O)n1C1CC1 [compound 615] | 2.01
CC(C)c1c(C(=O)N(C2CC2)S(=O)(=O)c2cccc(Cl)c2)sc(=O)n1C1CC1 [compound 617] | 2.01
COCCn1c(C)c(C(=O)N(C2CC2)S(=O)(=O)c2ccc(Cl)c(C(F)(F)F)c2)sc1=O [compound 619] | 2.01

SMILES | chromatographic logP
COCCn1c(C)c(C(=O)N(C2CC2)S(=O)(=O)c2ccc(Cl)cc2Cl)sc1=O [compound 620] | 2.01
Cc1c(C(=O)N(C2CC2)S(=O)(=O)c2ccc(Cl)c(C(F)(F)F)c2)sc(=O)n1C [compound 622] | 2.01
Cc1c(C(=O)N(C2CC2)S(=O)(=O)c2ccc(Cl)c(Cl)c2)sc(=O)n1C [compound 623] | 2.01
Cc1c(C(=O)N(C2CC2)S(=O)(=O)c2ccc(Cl)c(C(F)(F)F)c2)sc(=O)n1Cc1ccccc1 [compound 625] | 3.01
Cc1c(C(=O)N(C2CC2)S(=O)(=O)c2ccc(Cl)c(Cl)c2)sc(=O)n1Cc1ccccc1 [compound 626] | 3.01
Cc1c(C(=O)N(C2CC2)S(=O)(=O)c2ccc(Cl)cc2Cl)sc(=O)n1Cc1ccccc1 [compound 627] | 4.03
CCc1c(C(=O)N(C2CC2)S(=O)(=O)c2ccc(Cl)c(Cl)c2)sc(=O)n1C1CC1 [compound 630] | 4.08
CCc1c(C(=O)N(C2CC2)S(=O)(=O)c2ccc(Cl)cc2Cl)sc(=O)n1C1CC1 [compound 631] | 2.01
CC(C)c1c(C(=O)N(C2CC2)S(=O)(=O)c2ccc(Cl)c(C(F)(F)F)c2)sc(=O)n1C1CC1 [compound 633] | 3.01
CC(C)c1c(C(=O)N(C2CC2)S(=O)(=O)c2ccc(Cl)c(Cl)c2)sc(=O)n1C1CC1 [compound 634] | 3.01
CC(C)c1c(C(=O)N(C2CC2)S(=O)(=O)c2ccc(Cl)cc2Cl)sc(=O)n1C1CC1 [compound 635] | 2.01
O=C(c1cccnc1)N(C1CC1)S(=O)(=O)c1ccc(Cl)c(C(F)(F)F)c1 [compound 638] | 3.1
O=C(c1cccnc1)N(C1CC1)S(=O)(=O)c1ccc(Cl)c(Cl)c1 [compound 639] | 2.91
O=C(c1cccnc1)N(C1CC1)S(=O)(=O)c1cccc(Cl)c1 [compound 642] | 2.3
O=C(c1cccnc1Cl)N(C1CC1)S(=O)(=O)c1cccc(Cl)c1 [compound 643] | 2.91
O=C(c1cccnc1Cl)N(C1CC1)S(=O)(=O)c1ccccc1Cl [compound 644] | 2.58
Cc1cc(C)c(C(=O)N(C2CC2)S(=O)(=O)c2cccc(Cl)c2Cl)c(Cl)n1 [compound 650] | 3.57
Cc1cc(C)c(C(=O)N(C2CC2)S(=O)(=O)c2ccc(Cl)c(Cl)c2Cl)c(Cl)n1 [compound 651] | 4.16
CC1=C(C(=O)N(C2CC2)S(=O)(=O)c2ccccc2Cl)OCCS1 [compound 652] | 2.78
O=C(C1=C(C(F)(F)F)OCCS1)N(C1CC1)S(=O)(=O)c1ccccc1Cl [compound 653] | 3.2
Cc1cc(C(=O)N(C2CC2)S(=O)(=O)c2ccccc2Cl)nc(Cl)n1 [compound 654] | 2.93

same assay, conditions: c18 reversed-phase hplc; LogP method A: HPLC, 43°C, 0.1% aqueous phosphoric acid, acetonitrile, gradient 10% to 90% acetonitrile

SMILES | chromatographic logP
Cc1nn(C)c(F)c1C(=O)N(C1(c2ccc(Cl)cc2)CC1)S(=O)(=O)c1cccc(Cl)c1Cl [compound 669] | 4.44
Cc1nn(C)c(F)c1C(=O)N(C1CC1c1ccccc1)S(=O)(=O)c1ccccc1Cl (stereo not shown) [compound 676] | 3.27

— patent EP2540163A1, “Nematocide N-cyclopropyl-sulfonylamide derivatives” (Bayer CropScience AG, priority 2011, dated 2013)
